Experimental data reported in US5698538A, “Boronic acid and ester inhibitors of thrombin” (The DuPont Merck Pharmaceutical Company, priority 1996, dated 1997).

Key:
Format in all cases: biochemical
human factor Xa = molecular target: T1, human factor Xa (Homo sapiens, UniProt P00742); test: Inhibition of human factor Xa (chromogenic substrate S2222), inhibitory constant Ki; settings: S2222, pH 7.5, 30 minutes, read-out: Ki values for inhibition of Serine Proteases: Factor Xa
T1 construct: purchased Enzyme Research Laboratories, South Bend, Ind
Procedure: (§1) The effectiveness of compounds of the present invention as inhibitors of blood coagulation proteases was determined using purified human proteases and synthetic substrates following procedures similar to those described in Kettner et al. (1990).
(§2) For these assays, the rate of enzymatic (thrombin, Factor Xa, and Factor VIIa) hydrolysis of chromogenic substrates (S2238 (H-D-Phe-Pip-Arg-pNA), S2222, and S2288, respectively; Kabi Pharmacia, Franklin, Ohio.) was measured both in the absence and presence of compounds of the present invention. […] A decrease in the rate of absorbance change at 405 nm in the presence of inhibitor is indicative of enzyme inhibition. The results of this assay are expressed as inhibitory constant, Ki.
(§3) Thrombin and Xa determinations were made in 0.10M sodium phosphate buffer, pH 7.5, containing 0.20M NaCl, and 0.5% PEG 8000. VIIa determinations were made in 0.05M tris buffer, pH 7.6, containing 0.10M NaCl, 4 mM CaCl2, and 0.1% bovine serum albumin. The Michaelis constant, Km, for substrate hydrolysis was determined at 5° C. using the method of Lineweaver and Burk.
(§4) Values of Ki were determined by allowing 0.2-0.5 nM human thrombin or human factor Xa (Enzyme Research Laboratories, South Bend, Ind.), or 50 nM human factor VIIa (BiosPacific, Emeryville, Calif.) react with the substrate (0.20 mM-1 mM) in the presence of inhibitor. Reactions were allowed to go for 30 minutes and the velocities (rate of absorbance change vs time) were measured in the time frame of 25-30 minutes. The following relationship was used to calculate Ki values. [formula] where: vo is the velocity of the control in the absence of inhibitor;
(§5) vs is the velocity in the presence of inhibitor;
(§6) I is the concentration of inhibitor;
(§7) Ki is the dissociation constant of the enzyme: inhibitor complex;
(§8) S is the concentration of substrate;
(§9) Km is the Michaelis constant.

human factor VIIa = molecular target: T2, human factor VIIa (Homo sapiens, UniProt P08709); test: Inhibition of human factor VIIa (chromogenic substrate S2288), inhibitory constant Ki; settings: 50 nM human factor VIIa, S2288, pH 7.6, 4 mM CaCl2, 30 minutes; read-out: Ki values for inhibition of Serine Proteases: Factor VIIa
T2 construct: Factor VIIa in the extrinsic pathway; purchased BiosPacific, Emeryville, Calif
T2 sequence (P08709 213-466 limits assumed): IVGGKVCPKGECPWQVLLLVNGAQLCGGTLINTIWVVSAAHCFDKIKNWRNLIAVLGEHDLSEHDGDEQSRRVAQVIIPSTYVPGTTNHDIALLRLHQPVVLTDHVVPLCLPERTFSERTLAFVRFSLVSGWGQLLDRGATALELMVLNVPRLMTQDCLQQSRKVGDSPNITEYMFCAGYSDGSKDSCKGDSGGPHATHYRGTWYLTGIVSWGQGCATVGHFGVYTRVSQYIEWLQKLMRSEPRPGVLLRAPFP
T2 sequence (P08709 61-212 partner limits assumed): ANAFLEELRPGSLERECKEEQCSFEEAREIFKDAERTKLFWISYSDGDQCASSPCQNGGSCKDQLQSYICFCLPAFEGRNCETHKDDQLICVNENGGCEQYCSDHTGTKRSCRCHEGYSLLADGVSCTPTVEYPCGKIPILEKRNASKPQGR
Procedure: as §1, §2, §3, §4, §5, §6, §7, §8, §9

human thrombin = molecular target: T3, human thrombin (Homo sapiens, UniProt P00734); test: Inhibition of human thrombin (chromogenic substrate S2238), inhibitory constant Ki; settings: 0.2-0.5 nM human thrombin, S2238, pH 7.5, 30 minutes; read-out: Ki values for inhibition of Serine Proteases: Thrombin
T3 construct: purchased Enzyme Research Laboratories, South Bend, Ind
Procedure: as §1, §2, §3, §4, §5, §6, §7, §8, §9

T1 sequence (P00742 235-488 limits assumed): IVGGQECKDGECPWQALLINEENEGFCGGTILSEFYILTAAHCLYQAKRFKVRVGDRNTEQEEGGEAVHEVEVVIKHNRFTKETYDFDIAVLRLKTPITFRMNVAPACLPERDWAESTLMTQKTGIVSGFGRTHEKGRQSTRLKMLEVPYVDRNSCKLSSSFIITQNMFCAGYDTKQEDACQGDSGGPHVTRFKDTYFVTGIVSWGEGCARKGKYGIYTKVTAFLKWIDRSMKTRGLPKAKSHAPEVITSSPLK
T1 sequence (P00742 41-179 partner limits assumed): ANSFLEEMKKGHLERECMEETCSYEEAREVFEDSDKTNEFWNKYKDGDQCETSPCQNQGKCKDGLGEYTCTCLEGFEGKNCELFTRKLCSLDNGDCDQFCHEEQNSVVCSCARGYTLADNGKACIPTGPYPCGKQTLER

| Compound | Ki (human factor Xa) | Ki (human factor VIIa) | Ki (human thrombin) |
| --- | --- | --- | --- |
| CC1(C)C2CC3OB([C@H](CCCNC(=N)N)NC(=O)Cn4nc(Cc5ccccc5)nc4Cc4ccccc4)OC3(C)C1C2 (single isomer, unassigned) [Example 967] | 500 to 50000 nM | < 500 nM | < 500 nM |
| CC1(C)C2CC3OB([C@H](CCCNC(=N)N)NC(=O)Cn4nc(-c5cccc([N+](=O)[O-])c5)nc4Cc4ccccc4)OC3(C)C1C2 (single isomer, unassigned) [Example 969] | 500 to 50000 nM | 500 to 50000 nM | < 500 nM |
| COCCC[C@H](NC(=O)Cn1nc(CC#N)nc1Cc1ccccc1)B1OC2CC3CC(C3(C)C)C2(C)O1 (single isomer, unassigned) [Example 1352] | 500 to 50000 nM |  | < 500 nM |
| CC1(C)C2CC3OB([C@H](CCCCN)NC(=O)Cn4ncnc4CCc4ccccc4)OC3(C)C1C2 (single isomer, unassigned) [Example 1431] |  |  | < 500 nM |
| CC1(C)C2CC3OB([C@H](CCCCN)NC(=O)Cn4nc(CO)nc4CCc4ccccc4)OC3(C)C1C2 (single isomer, unassigned) [Example 1459] | 500 to 50000 nM | 500 to 50000 nM | < 50000 nM |
| CC1(C)C2CC3OB([C@H](CCCCN)NC(=O)Cn4nc(CCc5ccccc5)nc4CCc4ccccc4)OC3(C)C1C2 (single isomer, unassigned) [Example 1467] |  | 500 to 50000 nM | < 500 nM |
| CC1(C)C2CC3OB([C@H](CCCCN)NC(=O)Cn4nc(Cc5nn[nH]n5)nc4Cc4ccccc4)OC3(C)C1C2 (single isomer, unassigned) [Example 2067] |  |  | < 500 nM |
| CC1(C)C2CC3OB([C@H](CCCCN)NC(=O)Cn4nc(COCc5ccccc5)nc4CCc4ccccc4)OC3(C)C1C2 (single isomer, unassigned) [Example 2068] | 500 to 50000 nM | 500 to 50000 nM | < 50000 nM |
| CC1(C)C2CC3OB([C@H](CCCCN)NC(=O)Cn4cnc(-c5ccccc5)n4)OC3(C)C1C2 (single isomer, unassigned) [Example 2073] | 500 to 50000 nM | 500 to 50000 nM | < 500 nM |
| Cc1nc(-c2ccccc2)nn1CC(=O)N[C@@H](CCCCN)B1OC2CC3CC(C3(C)C)C2(C)O1 (single isomer, unassigned) [Example 2074] | 500 to 50000 nM | 500 to 50000 nM | < 500 nM |
| CC1(C)C2CC3OB([C@H](CCCCN)NC(=O)Cn4cnc(Cc5ccccc5)n4)OC3(C)C1C2 (single isomer, unassigned) [Example 2411] |  |  | < 500 nM |
| Cc1nc(Cc2ccccc2)nn1CC(=O)N[C@@H](CCCCN)B1OC2CC3CC(C3(C)C)C2(C)O1 (single isomer, unassigned) [Example 2412] | 500 to 50000 nM | 500 to 50000 nM | < 500 nM |
| CCCc1nc(Cc2ccccc2)nn1CC(=O)N[C@@H](CCCCN)B1OC2CC3CC(C3(C)C)C2(C)O1 (single isomer, unassigned) [Example 2414] | 500 to 50000 nM | 500 to 50000 nM | < 500 nM |
| CSCc1nc(Cc2ccccc2)nn1CC(=O)N[C@@H](CCCCN)B1OC2CC3CC(C3(C)C)C2(C)O1 (single isomer, unassigned) [Example 2416] | 500 to 50000 nM | 500 to 50000 nM | < 500 nM |
| CC1(C)C2CC3OB([C@H](CCCCN)NC(=O)Cn4nc(Cc5ccccc5)nc4CC#N)OC3(C)C1C2 (single isomer, unassigned) [Example 2422] | 500 to 50000 nM | 500 to 50000 nM | < 500 nM |
| CC1(C)C2CC3OB([C@H](CCCCN)NC(=O)Cn4nc(Cc5ccccc5)nc4CC(=O)O)OC3(C)C1C2 (single isomer, unassigned) [Example 2430] | 500 to 50000 nM | > 500000 nM | < 50000 nM |
| CC1(C)C2CC3OB([C@H](CCCCN)NC(=O)Cn4nc(Cc5ccccc5)nc4CO)OC3(C)C1C2 (single isomer, unassigned) [Example 2439] | 500 to 50000 nM | 500 to 50000 nM | < 500 nM |
| CC1(C)C2CC3OB([C@H](CCCCN)NC(=O)Cn4nc(Cc5ccccc5)nc4COCc4ccccc4)OC3(C)C1C2 (single isomer, unassigned) [Example 2440] | 500 to 50000 nM | 500 to 50000 nM | < 500 nM |
| CC1(C)C2CC3OB([C@H](CCCNC(=N)N)NC(=O)Cn4nc(Cc5ccccc5)nc4-c4ccccc4)OC3(C)C1C2 (single isomer, unassigned) [Example 2490] | 500 to 50000 nM | < 500 nM | < 500 nM |

| Compound | Ki (human factor Xa) | Ki (human factor VIIa) | Ki (human thrombin) |
| --- | --- | --- | --- |
| CC1(C)C2CC3OB([C@H](CCCNC(=N)N)NC(=O)Cn4nc(Cc5ccccc5)nc4-c4cccc([N+](=O)[O-])c4)OC3(C)C1C2 (single isomer, unassigned) [Example 2491] | < 500 nM | 500 to 50000 nM | < 500 nM |
| CC1(C)C2CC3OB([C@H](CCCCN)NC(=O)Cn4cnc(CCc5ccccc5)n4)OC3(C)C1C2 (single isomer, unassigned) [Example 2752] |  |  | < 500 nM |
| CC1(C)C2CC3OB([C@H](CCCCN)NC(=O)Cn4nc(CCc5ccccc5)nc4CO)OC3(C)C1C2 (single isomer, unassigned) [Example 2780] | 500 to 50000 nM | < 500 nM | < 500 nM |
| CC1(C)C2CC3OB([C@H](CCCCN)NC(=O)Cc4nc(Cc5ccccc5)n(Cc5ccccc5)n4)OC3(C)C1C2 (single isomer, unassigned) [Example 3349] | 500 to 50000 nM |  | < 500 nM |
| CC(C)(C)OC(=O)Nc1cccc(-c2ccc(C(=O)N[C@@H](CCCNC(=N)N)B3OC4CC5CC(C5(C)C)C4(C)O3)s2)c1 (single isomer, unassigned) [Example 5426] | < 500 nM |  | < 500 nM |
| CC(C)(C)OC(=O)Nc1cccc(-c2ccc(C(=O)N[C@@H](CCCNC(=N)N)B3OC4CC5CC(C5(C)C)C4(C)O3)o2)c1 (single isomer, unassigned) [Example 5529] | < 500 nM |  | < 500 nM |
| CC1(C)[C@@H]2C[C@H]3OB([C@H](CCCNC(=N)N)NC(=O)c4ccc(-c5ccccc5)cc4)O[C@@]3(C)[C@H]1C2 [Example 1, N^1-(4-Phenylbenzoyl)boroarginine (+)-Pinanediol, Bisulfite] | 500 to 50000 nM |  | < 500 nM |
| Cc1cc(-c2ccccc2)ccc1C(=O)N[C@@H](CCCNC(=N)N)B1O[C@@H]2C[C@@H]3C[C@@H](C3(C)C)[C@]2(C)O1 [Example 29] |  |  | < 500 nM |
| Cc1cc(-c2ccccc2)ccc1C(=O)N[C@@H](CCCNC(=N)N)B(O)O [Example 129] | < 500 nM |  | < 500 nM |
| CC(C)(C)NS(=O)(=O)c1ccccc1-c1ccc(C(=O)N[C@@H](CCCNC(=N)N)B2O[C@@H]3C[C@@H]4C[C@@H](C4(C)C)[C@]3(C)O2)c([N+](=O)[O-])c1 [Example 288] |  | < 500 nM | < 500 nM |
| CC1(C)[C@@H]2C[C@H]3OB([C@H](CCCCN)NC(=O)Cn4ncnc4Cc4ccccc4)O[C@@]3(C)[C@H]1C2 [Example 887] |  |  | < 500 nM |
| CC1(C)[C@@H]2C[C@H]3OB([C@H](CCCCN)NC(=O)Cn4nc(-c5ccccc5)nc4Cc4ccccc4)O[C@@]3(C)[C@H]1C2 [Example 920] |  |  | < 500 nM |
| NCCCC[C@H](NC(=O)Cn1ncnc1Cc1ccccc1)B(O)O [Example 977] |  |  | < 500 nM |
| NCCCC[C@H](NC(=O)Cn1ncnc1CCc1ccccc1)B(O)O [Example 1521] |  |  | < 500 nM |
| NCCCC[C@H](NC(=O)Cn1nc(CCc2ccccc2)nc1CCc1ccccc1)B(O)O [Example 1557] |  | 500 to 50000 nM | < 500 nM |
| NCCCC[C@H](NC(=O)Cn1cnc(CCc2ccccc2)n1)B(O)O [Example 2837] |  |  | < 50000 nM |
| CC1(C)[C@@H]2C[C@H]3OB([C@H](CCCCN)NC(=O)c4ccc(-c5ccccc5)nc4)O[C@@]3(C)[C@H]1C2 [Example 4064] | 500 to 50000 nM |  | < 50000 nM |
| NCCCC[C@H](NC(=O)c1ccc(-c2ccccc2)nc1)B(O)O [Example 4065] | 500 to 50000 nM |  | < 50000 nM |
